{
  "source": "patent US9174992B2",
  "about": "“Heterobicyclic compounds” (Amgen Inc., priority 2012, dated 2015)",
  "note": "“And” between values parts separate entries of the source, which are not always exact repeats. Equal values may be shown once.",
  "data": [
    {"target": "PDE10A (UniProt Q9Y233)", "experiment": "PDE10 enzyme inhibition, IMAP TR-FRET assay (Example A, MPDE10A7 Enzyme Activity and Inhibition)", "format": "biochemical", "details": "approximate IC50 value, Table 10", "method": "Enzyme Activity. An IMAP TR-FRET assay was used to analyze the enzyme activity (Molecular Devices Corp., Sunnyvale Calif.). 10 μL of serial diluted PDE10A (BPS Bioscience, San Diego, Calif.) or tissue homogenate was incubated with equal volumes of diluted fluorescein labeled cAMP or cGMP for 90 min in 384-well Polypropylene assay plates (Greiner, Monroe, N.C.) at room temperature. After incubation, the reaction was stopped by adding 55 μL of diluted binding reagents and was incubated for 4 hours to overnight at room temperature. The plates were read on an Envision (Perkin Elmer, Waltham, Mass.) for time resolved fluorescence resonance energy transfer. The data were analyzed with Genedata Screener® (Lexington, Mass.).\nEnzyme Inhibition. To check the inhibition profile, 0.2 μL of serial diluted compounds were incubated with 10 μL of diluted PDE10 enzyme (BPS Bioscience, San Diego, Calif.) or tissue homogenate in a 384-well Polypropylene assay plate (Greiner, Monroe, N.C.) for 60 min at room temperature. After incubation, 10 μL of diluted fluorescein labeled cAMP or cGMP substrate were added and incubated for 90 min at room temperature. The reaction was stopped by adding 55 μL of diluted binding reagents and plates were read on an Envision (Perkin Elmer, Waltham, Mass.) for time resolved fluorescence resonance energy transfer. The data were analyzed with Genedata Screener® (Lexington, Mass.).\nIC50 curves were generated from the raw data collected from the […] and fitted with a four-parameter logistic equation using in-house data analysis tool, Activity Base.", "values": [
      {"smiles": "c1ccc2nc(N[C@H]3C[C@H](n4c(C5CC5)nc5cccnc54)C3)ccc2c1", "note": "[Example 6, N-(Trans-3-(2-cyclopropyl-3h-imidazo[4,5-b]pyridin-3-yl)cyclobutyl)quinolin-2-amine]", "IC50": "0.944 nM"},
      {"smiles": "Cn1c(=O)n([C@H]2C[C@@H](N(C)c3nc4ccccc4s3)C2)c2ncccc21", "note": "[Example 106, 3-(cis-3-(benzo[d]thiazol-2-yl(methyl)amino)cyclobutyl)-1-methyl-1H-imidazo[4,5-b]pyridin-2(3H)-one]", "IC50": "43.1 nM"},
      {"smiles": "CC1(C)C(=O)N(C2CCN(c3nc4ccccc4s3)CC2)c2nccnc21", "note": "[Example 198, 5-(1-(benzo[d]thiazol-2-yl)piperidin-4-yl)-7,7-dimethyl-5H-pyrrolo[2,3-b]pyrazin-6(7H)-one]", "IC50": "2.36 nM"},
      {"smiles": "CC1(C)C(=O)N([C@H]2C[C@H](Nc3nc4ccc(F)cc4s3)C2)c2ncncc21", "note": "[Example 157, 7-(trans-3-((6-fluorobenzo[d]thiazol-2-yl)amino)cyclobutyl)-5,5-dimethyl-5H-pyrrolo[2,3-d]pyrimidin-6(7H)-one]", "IC50": "4.45 nM"},
      {"smiles": "Cn1c(N[C@H]2C[C@H](n3c(=O)n(C4CC4)c4nccnc43)C2)nc2ccccc21", "note": "[Example 226, 1-cyclopropyl-3-(trans-3-((1-methyl-1H-benzo[d]imidazol-2-yl)amino)cyclobutyl)-1H-imidazo[4,5-b]pyrazin-2(3H)-one]", "IC50": "1.2 nM"},
      {"smiles": "CC1(C)C(=O)N([C@H]2C[C@H](Nc3nccc(C(F)(F)F)n3)C2)c2ncccc21", "note": "[Example 67]", "IC50": "35.6 nM and 59 nM"},
      {"smiles": "O=c1n(C2CC2)c2cccnc2n1[C@H]1C[C@H](Nc2ncc3ccccc3n2)C1", "note": "[Example 184, 1-cyclopropyl-3-(trans-3-(quinazolin-2-ylamino)cyclobutyl)-1H-imidazo[4,5-b]pyridin-2(3H)-one]", "IC50": "34.7 nM"},
      {"smiles": "CC1(C)C(=O)N(C2CCN(C(=O)c3ccccn3)CC2)c2ncccc21", "note": "[Example 119, 3,3-dimethyl-1-(1-picolinoylpiperidin-4-yl)-1H-pyrrolo[2,3-b]pyridin-2(3H)-one]", "IC50": "8.85 nM"},
      {"smiles": "O=c1[nH]c2cccnc2n1[C@H]1CC[C@H](Nc2nc3cc(F)ccc3s2)CC1", "note": "[Example 107, 3-(trans-4-((5-fluorobenzo[d]thiazol-2-yl)amino)cyclohexyl)-1H-imidazo[4,5-b]pyridin-2(3H)-one]", "IC50": "152 nM"},
      {"smiles": "CC1(C)C(=O)N([C@@H]2CCN(c3nc4ccccc4s3)C2)c2nccnc21", "note": "[Example 140, (R)-5-(1-(benzo[d]thiazol-2-yl)pyrrolidin-3-yl)-7,7-dimethyl-5H-pyrrolo[2,3-b]pyrazin-6(7H)-one]", "IC50": "656 nM"},
      {"smiles": "CC(=O)c1ccc(N[C@H]2C[C@H](N3C(=O)C(C)(C)c4nccnc43)C2)nc1", "note": "[Example 84, 5-(trans-3-((5-acetylpyridin-2-yl)amino)cyclobutyl)-7,7-dimethyl-5H-pyrrolo[2,3-b]pyrazin-6(7H)-one]", "IC50": "23.1 nM"},
      {"smiles": "COc1nc2cccnc2n1C1CN(c2ncc3ccccc3n2)C1", "note": "[Example 129, 2-(3-(2-Methoxy-3H-imidazo[4,5-b]pyridin-3-yl)azetidin-1-yl)quinazoline]", "IC50": "1.13 nM"},
      {"smiles": "CC1(C)C(=O)N(C2CCN(c3nc4ccc(C(F)(F)F)cc4s3)CC2)c2nccnc21", "note": "[Example 202, 7,7-dimethyl-5-(1-(6-(trifluoromethyl)benzo[d]thiazol-2-yl)piperidin-4-yl)-5H-pyrrolo[2,3-b]pyrazin-6(7H)-one]", "IC50": "68.8 nM"},
      {"smiles": "Cn1c(=O)n([C@H]2C[C@H](Nc3nc4cc(F)ccc4s3)C2)c2ncc(F)cc21", "note": "[Example 210, 6-fluoro-3-(trans-3-((5-fluorobenzo[d]thiazol-2-yl)amino)cyclobutyl)-1-methyl-1H-imidazo[4,5-b]pyridin-2(3 H)-one]", "IC50": "0.892 nM"},
      {"smiles": "CC1(C)C(=O)N([C@H]2C[C@H](Nc3ccnc(Cl)n3)C2)c2ncccc21", "note": "[Example 72, 1-(trans-3-((2-cholropyrimidin-4-yl)amino)cyclobutyl)-3,3-dimethyl-1H-pyrrolo[2,3-b]pyridin-2(3H)-one]", "IC50": "352 nM"},
      {"smiles": "O=c1[nH]c2cccnc2n1[C@H]1C[C@H](Nc2nc3cc(F)ccc3s2)C1", "note": "[Example 99, 3-(trans-3-((5-fluorobenzo[d]thiazol-2-yl)amino)cyclobutyl)-1H-imidazo[4,5-b]pyridin-2(3H)-one]", "IC50": "7.7 nM"},
      {"smiles": "O=c1[nH]c2cccnc2n1[C@H]1CC[C@H](Nc2ccc3ccc(F)cc3n2)CC1", "note": "[Example 111, 3-(trans-4-((7-fluoroquinolin-2-yl)amino)cyclohexyl)-1H-imidazo[4,5-b]pyridin-2(3H)-one]", "IC50": "1770 nM"},
      {"smiles": "c1cnc2ccc(N[C@H]3C[C@H](n4c(C5CC5)nc5cccnc54)C3)nc2c1", "note": "[Example 3, N-(Trans-3-(2-cyclopropyl-3h-imidazo[4,5-b]pyridin-3-yl)cyclobutyl)-1,5-naphthyridin-2-amine]", "IC50": "0.622 nM"},
      {"smiles": "CC1(C)C(=O)N([C@H]2C[C@H](Nc3ccc(Br)cn3)C2)c2nccnc21", "note": "[Example 207, 5-(trans-3-((5-bromopyridin-2-yl)amino)cyclobutyl)-7,7-dimethyl-5H-pyrrolo[2,3-b]pyrazin-6(7 H)-one]", "IC50": "2.39 nM"},
      {"smiles": "COc1cnc(N[C@H]2C[C@H](N3C(=O)C(C)(C)c4cccnc43)C2)nc1", "note": "[Example 83, 1-(trans-3-((5-methoxypyrimidin-2-yl)amino)cyclobutyl)-3,3-dimethyl-1H-pyrrolo[2,3-b]pyridin-2(3H)-one]", "IC50": "7.72 nM"},
      {"smiles": "O=c1[nH]c2cccnc2n1[C@H]1C[C@H](Nc2nc3ccccc3s2)C1", "note": "[Example 94, 3-(trans-3-(benzo[d]thiazol-2-ylamino)cyclobutyl)-1H-imidazo[4,5-b]pyridin-2(3H)-one]", "IC50": "0.91 nM"},
      {"smiles": "CC1(C)C(=O)N([C@H]2C[C@H](Nc3nc4ccccc4o3)C2)c2ncccc21", "note": "[Example 168, 1-(trans-3-(benzo[d]oxazol-2-ylamino)cyclobutyl)-3,3-dimethyl-1H-pyrrolo[2,3-b]pyridin-2(3 H)-one]", "IC50": "0.116 nM"},
      {"smiles": "Cn1c(=O)n([C@H]2C[C@H](Nc3ncc4ccccc4n3)C2)c2ncc(F)cc21", "note": "[Example 206, 6-fluoro-1-methyl-3-(trans-3-(quinazolin-2-ylamino)cyclobutyl)-1H-imidazo[4,5-b]pyridin-2(3H)-one]", "IC50": "7.65 nM"},
      {"smiles": "CC1(C)C(=O)N([C@H]2C[C@H](Nc3nc4ccccc4s3)C2)c2ncncc21", "note": "[Example 147, 7-(trans-3-(benzo[d]thiazol-2-ylamino)cyclobutyl)-5,5-dimethyl-5H-pyrrolo[2,3-d]pyrimidin-6(7H)-one]", "IC50": "0.0406 nM"},
      {"smiles": "c1cnc2c(c1)ccn2[C@H]1C[C@H](Nc2nc3ccccc3s2)C1", "note": "[Example 165, N-(trans-3-(1H-pyrrolo[2,3-b]pyridin-1-yl)cyclobutyl)benzo[d]thiazol-2-amine]", "IC50": "38.5 nM"},
      {"smiles": "CC1(C)C(=O)N([C@H]2C[C@H](Oc3nc4ccccc4s3)C2)c2nccnc21", "note": "[Example 197, 5-(trans-3-(benzo[d]thiazol-2-yloxy)cyclobutyl)-7,7-dimethyl-5H-pyrrolo[2,3-b]pyrazin-6(7H)-one]", "IC50": "1.77 nM"},
      {"smiles": "O=c1[nH]c2cccnc2n1[C@H]1C[C@H](Nc2ccc3ccc(F)cc3n2)C1", "note": "[Example 101, 3-(trans-3-((7-fluoroquinolin-2-yl)amino)cyclobutyl)-1H-imidazo[4,5-b]pyridin-2(3H)-one]", "IC50": "17.9 nM"},
      {"smiles": "COc1ccc2nc(N[C@H]3C[C@H](n4c(=O)n(C5CC5)c5nccnc54)C3)sc2c1", "note": "[Example 225, 1-cyclopropyl-3-(trans-3-((6-methoxy-1,3-benzothiazol-2-yl)amino)cyclobutyl)-1,3-dihydro-2H-imidazo[4,5-b]pyrazin-2-one]", "IC50": "10.8 nM"},
      {"smiles": "CC1(C)C(=O)N([C@H]2C[C@H](Nc3ccc(Br)cn3)C2)c2nccnc21", "note": "[Example 158, 5-(trans-3-((5-bromopyridin-2-yl)amino)cyclobuty1)-7,7-dimethyl-5H-pyrrolo[2,3-b]pyrazin-6(7 H)-one]", "IC50": "0.189 nM"},
      {"smiles": "CC1(C)C(=O)N(C2CCN(c3ccc4cc(F)ccc4n3)CC2)c2nccnc21", "note": "[Example 199, 5-(1-(6-fluoroquinolin-2-yl)piperidin-4-yl)-7,7-dimethyl-5H-pyrrolo[2,3-b]pyrazin-6(7H)-one]", "IC50": "15.1 nM"},
      {"smiles": "O=C1N([C@H]2C[C@H](Nc3nc4ccccc4s3)C2)c2ncc(Cl)cc2C1(F)F", "note": "[Example 211, 1-(trans-3-(benzo[d]thiazol-2-ylamino)cyclobutyl)-5-chloro-3,3-difluoro-1H-pyrrolo[2,3-b]pyridin-2(3 H)-one]", "IC50": "0.111 nM"},
      {"smiles": "O=c1[nH]c2cccnc2n1[C@H]1CC[C@H](Nc2nc3ccccc3s2)CC1", "note": "[Example 104]", "IC50": "31.4 nM"},
      {"smiles": "Cn1c(=O)n([C@H]2C[C@H](Nc3nc4ccccc4s3)C2)c2nccnc21", "note": "[Example 95, 1-(trans-3-(benzo[d]thiazol-2-ylamino)cyclobutyl)-3-methyl-1H-imidazo[4,5-b]pyrazin-2(3H)-one]", "IC50": "0.971 nM"},
      {"smiles": "O=c1n(C2CC2)c2nccnc2n1[C@H]1C[C@H](Nc2ccc3ncccc3n2)C1", "note": "[Example 228, 1-(trans-3-((1,5-naphthyridin-2-yl)amino)cyclobutyl)-3-cyclopropyl-1H-imidazo[4,5-b]pyrazin-2(3H)-one]", "IC50": "246 nM"},
      {"smiles": "CC1(C)C(=O)N([C@H]2C[C@H](Nc3ccc(C#N)cn3)C2)c2ncccc21", "note": "[Example 59, 1-(Trans-3-((5-cyanopyridin-2-yl)amino)cyclobutyl)-3,3-dimethyl-1H-pyrrolo[2,3-b]pyridin-2(3H)-one]", "IC50": "15.9 nM"}
    ]}
  ]
}
